Assay results: US7074801B1, “Nitrogen-containing condensed cyclic compound having a pyrazolyl group as a substituent group and pharmaceutical composition thereof” (Eisai Co., Ltd., priority 2001, dated 2006)
Structures can show the parent of a compound that is named as a salt.

Each compound was assayed on STAT6 (assay: Inhibitory test on STAT6 activation: IL-4-induced alkali phosphatase STAT6 reporter in 293 cells stably expressing the STAT6 gene and STAT6 reporter gene). Conditions: HEK293; Table 1; 1 ng/ml human recombinant IL-4, 16 hours, 293 cells with STAT6 reporter; read-out: Inhibitory activity IC50 (concentration at which the alkali phosphatase activity induced by IL-4 was inhibited by 50%).
Format: cell-based
Description: The inhibitory action of the present compound on activation of STAT6 was evaluated according to the following experiments.
1) Construction of a STAT6 Reporter Gene
An oligonucleotide of SEQ ID NO:1 in which three STAT6-binding regions on a human immunoglobulin germline E gene promoter had been linked was mixed with its complementary chain, thermally denatured and annealed, and 5′- and 3′-ends thereof were cleaved with restriction enzymes Kpn I (Code No. 1068A, Takara Shuzo) and Xba I (Code No. 1093A, Takara Shuzo) respectively, and the resulting fragment was cloned into a Kpn I/Xba I site of pUG-BGH-PLAP vector (described in Molecular Pharmacology, 49:860–873, 1996). To induce a basic transcriptional factor, a TK promoter region of herpes virus was cloned into an Xba I/Hind III (Code No. 1060A, Takara Shuzo) site of the pUG-BGH-PLAP vector. To obtain a stably expressing cell strain, a neomycin resistance gene (PGK-neo expression cassette) was integrated with an Sal I (Code No. 1080A, Takara Shuzo) of this vector. Cloning of the TK promoter and PGK-neo expression cassette was carried out according to Molecular Pharmacology, 49:860–873, 1996.
The underlined sites are a Kpn I recognition site and Xba I recognition site respectively. 2) Construction of an STAT6 Expression Vector
An oligonucleotide of SEQ ID NO:2 containing an initiation codon of STAT6 gene and an oligonucleotide of SEQ ID NO:3 containing a stop codon were used, and total RNA was prepared from human peripheral blood cells by using RNeasy Mini kit (Code No. 74104, OIAGEN). Then, cDNA was prepared by reverse transcription reaction using Takara RNA LA PCR kit (Code No. RR012A, Takara Shuzo) and then subjected to PCR reaction with primers of SEQ ID NOS:2 and 3, to amplify the STAT6 gene. • (SEQ ID NO:2) 5′-[…]-3′ The underlined site is an EcoR I recognition site. • (SEQ ID NO:3) 5′-[…]-3′ The underlined site is an Xho I recognition site.
The PCR product was digested with EcoR I (Code No. 1040A, Takara Shuzo) and Xho I (1094A, Takara Shuzo), and the digested fragment was isolated on an agarose gel. The isolated fragment was integrated into a vector fragment obtained by digesting pcDNA3.1 (+) (Code No. U790-20, Invitrogen) vector with EcoRI/Xho I.
3) Introduction of the Gene and Preparation of a Stably Expressing Cell Strain
Human fetal kidney-derived 293 cells (American Type Culture Collection), 3.0×10^5 cells, were spread on a Falcon tissue culture 6-well plate (Code No. 35-3046, Becton Dickinson) and cultured overnight. 1.5 μg of the prepared STAT6 reporter gene, 1.5 μg of the STAT6 gene and 20 μl of lipofectamine (Code No. 18324-012, GIBCO BRL) were mixed in 0.3 ml OPTI-MEM medium (Code No. 31985-070) and left at room temperature for 20 minutes. Thereafter, 1.2 ml OPTI-MEM medium was further added to the cells washed with OPTI-MEM medium not containing fetal bovine serum, and the cells were cultured for 2 hours. 1.5 ml medium containing fetal bovine serum was added thereto, and the cells were cultured for additional 19 hours. The medium was exchanged with a fresh one, and Geneticin (Code No. G-5013, SIGMA) was added at a concentration of 1 mg/ml, and the cells were cultured, and chemical-resistant cells were selected. The resulting chemical-resistant cells were floated in a medium containing 1 mg/ml Geneticin, then spread at a density of 0.5 cell/well on a 96-well microplate (Code No. 35-3072, Becton Dickinson) and cloned to give a clone expressing alkali phosphatase in response to IL-4.
4) Inhibitory Test on STAT6 Activation
The cells stably expressing the STAT6 gene and STAT6 reporter gene and expressing alkali phosphatase in response to IL-4 were spread at a density of 5000 cells/180 μl/well on a 96-well microplate (Code No. 35-3072, Becton Dickinson) and cultured overnight. […]

Row | Structure (SMILES) | IC50
1 | CS(=O)(=O)c1ccc(-c2n[nH]cc2-c2ccc3ncc(-c4ccc(F)cc4)n3c2)cc1 [Example 101, 3-(4-Fluorophenyl)-6-{3-[4-(methylsulfonyl)phenyl]-1H-4-pyrazolyl}imidazo[1,2-a]pyridine dihydrochloride] | 10 to 100 nM
2 | COc1ccc(-c2ncnc3ccc(-c4c[nH]nc4-c4ccc(F)cc4)cc23)cc1 [Example 254, 6-[3-(4-Fluorophenyl)-1H-4-pyrazolyl]-4-[4-(methoxyphenyl)-quinazolinedihydrochloride] | 10 to 100 nM
3 | Cc1n[nH]cc1-c1ccc2ncc(-c3ccc(C(=O)NCCc4ccccn4)c(F)c3)n2c1 [Example 648, N1-[2-(2-Pyridyl)ethyl]-2-fluoro-4-[6-(3-methyl-1H-4-pyrazolyl)imidazo[1,2-a]pyridin-3-yl] benzamide] | 10 to 100 nM
4 | Fc1cccc(F)c1-c1n[nH]cc1-c1ccc2ncc(-c3noc(CCC(F)(F)F)n3)n2c1 [Example 601, 3-[5-(3,3,3-Trifluoropropyl)-[1,2,4]oxadiazol-3-yl]-6-[3-(2,6-difluorophenyl)-1H-4-pyrazolyl]-imidazo[1,2-a]pyridine] | < 10 nM
5 | NC(=O)[C@@H]1CCCN1Cc1ccc(-c2cnc3ccc(-c4c[nH]nc4-c4ccc(F)cc4)cn23)s1 [Example 92, (2S)-1-[(5-{6-[3-(4-Fluorophenyl)-1H-4-pyrazolyl]-imidazo-[1,2-a]pyridin-3-yl}-2-thienyl)methyl]tetrahydro-1H-2-pyrrole carboxyamide trihydrochloride] | < 10 nM

Continued, values first:

Row | IC50 | Structure (SMILES)
6 | < 10 nM | O=C(Nc1nc2ccc(F)cc2s1)c1ccc(-c2cnc3ccc(-c4cn[nH]c4)cn23)cc1F [Example 669, N1-(6-Fluoro-1,3-benzothiazol-2-yl)-2-fluoro-4-[6-(1H-4-pyrazolyl)imidazo[1,2-a]pyridin-3-yl]benzamide dihydrochloride]
7 | < 10 nM | CNc1nnc(-c2cnc3ccc(-c4c[nH]nc4-c4ccc(F)cc4F)cn23)o1 [Example 561]
8 | < 10 nM | O=C(Nc1ccc(F)cc1F)c1ccc(-c2cnc3ccc(-c4cn[nH]c4)cn23)cc1F [Example 678, N1-(2,4-Difluorophenyl)-2-fluoro-4-[6-(1H-4-pyrazolyl)-imidazo[1,2-a]pyridin-3-yl]benzamide hydrochloride]
9 | 10 to 100 nM | N#Cc1ccc(-c2cnc3ccc(-c4c[nH]nc4-c4ccc(F)cc4)cn23)s1 [Example 71, 5-{6-[3-(4-Fluorophenyl)-1H-4-pyrazolyl]imidazo[1,2-a]-pyridin-3-yl}-2-thiophene carboxynitrile dihydrochloride]
10 | < 10 nM | CN(C)Cc1nc(-c2cnc3ccc(-c4c[nH]nc4-c4ccccc4F)cn23)no1 [Example 598, (3-{6-[3-(2-Fluorophenyl)-1H-4-pyrazolyl]-imidazo[1,2-a]-pyridin-3-yl}-[1,2,4]oxadiazol-5-ylmethyl)dimethylamine tri-trifluoroacetate]
11 | 10 to 100 nM | O=C(Nc1ccc(-c2cnc3ccc(-c4cn[nH]c4)cn23)cc1F)NC1CCCCC1 [Example 698, N-Cyclohexyl-N′-(2-fluoro-4-[6-(1H-4-pyrazolyl)imidazo[1,2-a]pyridin-3-yl]phenyl}urea hydrochloride]
12 | < 10 nM | Fc1ccc(-c2n[nH]cc2-c2ccc3ncc(-c4nnc(C5CC5)o4)n3c2)c(F)c1 [Example 557, 3-(5-Cyclopropyl[1,3,4]oxadiazol-2-yl)6-[3-(2,4-difluorophenyl)-1H-pyrazol-4-yl]imidazo[1,2-a]pyridine]
13 | < 10 nM | COc1nnc(-c2cnc3ccc(-c4c[nH]nc4-c4ccc(F)cc4F)cn23)s1 [Example 562, 6-[3-(2,4-Fluorophenyl)-1H-pyrazol-4-yl]-3-(5-methoxy[1,3,4]thiadiazol-2-yl)imidazo[1,2-a]pyridine]

Same assay, conditions: HEK293; Table 2; 1 ng/ml human recombinant IL-4, 16 hours, 293 cells with STAT6 reporter; read-out: Inhibitory activity IC50 (concentration at which the alkali phosphatase activity induced by IL-4 was inhibited by 50%)

Row | Structure (SMILES) | IC50
14 | COc1ccc(-c2ccc(-c3n[nH]cc3-c3ccc4ncnc(-c5ccc(S(C)(=O)=O)s5)c4c3)cc2)cn1 [Example 889, 6-{3-[4-(6-Methoxypyridin-3-yl)phenyl]-1H-pyrazol-4-yl}-4-(5-methylsulfonylthiophen-2-yl) quinazoline] | 10 to 100 nM
15 | Cc1ccc(-c2n[nH]cc2-c2ccc3ncnc(-c4ccc(S(C)(=O)=O)s4)c3c2)cc1 [Example 890, 4-(5-Methylsulfonylthiophen-2-yl)-6-(3-p-tolyl-1H-pyrazol-4-yl) quinazoline] | < 10 nM
16 | CS(=O)(=O)c1cccc(N2CCCN(c3ncnc4ccc(-c5cn[nH]c5)cc34)CC2)c1 [Example 1002, 4-{4-(3-Methylsulfonyl)phenyl}-1,4-diazepan-1-yl}-6-(1H-4-pyrazolyl)quinazoline hydrochloride] | 10 to 100 nM
17 | CS(=O)(=O)c1cccc(N2CCN(c3ncnc4ccc(-c5c[nH]nc5-c5ccc(C#N)s5)cc34)CC2)c1 [Example 967, 5-(4-{4-[4-(3-Methylsulfonylphenyl)piperazin-1-yl]quinazolin-6-yl}-1H-pyrazol-3-yl)thiophen-2-carbonitrile tri-trifluoroacetate] | < 10 nM
18 | CS(=O)(=O)c1ccc(-c2ncnc3ccc(-c4c[nH]nc4[N+](=O)[O-])cc23)s1 [Example 901, 4-(5-Methylsulfonylthiophen-2-yl)-6-(3-nitro-1H-pyrazol-4-yl) quinazoline] | 100 to 1000 nM

Now from value to compound:

Row | IC50 | Structure (SMILES)
19 | < 10 nM | CS(=O)(=O)c1cccc(N2CCN(c3ncnc4ccc(-c5cn[nH]c5)cc34)CC2)c1 [Example 946, 4-[4-(3-Methylsulfonylphenyl)piperazin-1-yl]-6-(1H-pyrazol-4-yl)quinazoline tri-trifluoroacetate]
20 | 10 to 100 nM | CS(=O)(=O)c1ccc(-c2ncnc3ccc(-c4c[nH]nc4-c4ccc(N5CCOCC5)cc4)cc23)s1 [Example 887, 4-(5-Methylsulfonylthiophen-2-yl)-6-[3-(4-morpholin-4-ylphenyl)-1H-pyrazol-4-yl] quinazoline]
21 | < 10 nM | CNS(=O)(=O)c1cccc(N2CCN(c3ncnc4ccc(-c5cn[nH]c5)cc34)CC2)c1 [Example 952, N-Methyl-3-{4-[6-(1H-pyrazol-4-yl)quinazolin-4-yl]piperazin-1-yl}benzene sulfonamide tri-trifluoroacetate]
22 | < 10 nM | O=C(NCc1cccc(OC(F)F)c1)c1ccc(-c2cnc3ccc(-c4cn[nH]c4)cn23)cc1F [Example 706, N1-[3-(Difluoromethoxy)benzyl]-2-fluoro-4-[6-(1H-4-pyrazolyl)imidazo[1,2-a]pyridin-3-yl]benzamide hydrochloride]
23 | 10 to 100 nM | CS(=O)(=O)c1ccc(-c2ncnc3ccc(-c4c[nH]nc4-c4ccc(F)cc4)cc23)o1 [Example 900, 6-[3-(4-Fluorophenyl)-1H-pyrazol-4-yl]-4-(5-methylsulfonylfuran-2-yl) quinazoline]
24 | < 10 nM | CS(=O)(=O)c1cnc(-c2ncnc3ccc(-c4c[nH]nc4-c4ccc(F)cc4)cc23)s1 [Example 897, 6-[3-(4-Fluorophenyl)-1H-pyrazol-4-yl]-4-(5-methylsulfonylthiazol-2-yl) quinazoline]
25 | 10 to 100 nM | NS(=O)(=O)c1ccc(NC(=O)c2ccc(-c3cnc4ccc(-c5cn[nH]c5)cn34)cc2F)cc1 [Example 700, N1-[4-(Aminosulfonyl)phenyl]-2-fluoro-4-[6-(1H-4-pyrazolyl)imidazo[1,2-a]pyridin-3-yl]benzamide hydrochloride]
